Data set [1] has as its system MCF-7 cells. The data set is described as follows: Concentration-dependent cellular uptake of neurosteroids into MCF-7 cells, Michaelis-Menten / Eadie-Hofstee analysis. It counts as cell-based, human. The following applies: 5–200 µM; for Transport Mechanism Type 1 Vmax / Km / Transport Mechanism Type 2 Vmax: 30 min, 37 °C, Eadie-Hofstee plot analysis. As to the method: MCF-7 human breast adenocarcinoma cells (HTB-22; RRID: CVCL_0031) were purchased from the American Type Culture Collection (ATCC, Manassas, VA, USA). The cells were cultured in standard conditions (37 °C, 5% CO2) using Dulbecco’s modified Eagle medium (DMEM) supplemented with L-glutamine (2 mM), heat-inactivated fetal bovine serum (10%), penicillin (50 U/mL), and streptomycin (50 μg/mL). Once the cells reached 80% confluence in culture bottles (75 cm^2), the cells were washed twice with DPBS solution and harvested by trypsinization. All the following experiments were carried out with passage number 9–22.
Concentrations of neurosteroids (1–11) were determined by HPLC.
5.03 software (GraphPad Software, San Diego, CA, USA).

Data set [2] concerns efflux transporters (P-gp, BCRP, MRPs). The data set is described as follows: Cellular uptake into MCF-7 cells in the presence of efflux inhibitors (elacridar, MK-571). The following applies: 25 µM compound; for Efflux transporter substrate status: 50 µM elacridar and MK-571, pH 7.4, MCF-7 cells.
Procedure: The competitive uptake of 25 µM neurosteroids (1–11) in the presence of efflux inhibitors, 50 µM elacridar (P-gp and BCRP), and 50 µM MK-571 (MRPs) at pH 7.4 was carried out as described above, and the concentrations of studied compounds were analyzed with HPLC methods (below), calculated according to the standard curve, and normalized with protein concentration measured to each 24-well plate.
Concentrations of neurosteroids (1–11) were determined by HPLC. The apparatus was comprised of an Agilent 1100 binary pump (Agilent Technologies Inc., Wilmington, DE, USA), 1100 micro vacuum degasser, HP 1050 Auto-sampler, HP 1050 variable wavelength detector, operating at 225 nm. The chromatographic separations were achieved on a Supelco Supelcosil LC-Si analytical column (4.6 mm x 250 mm, 5 ml) (Supelco Inc., Bellefonte, PA, USA) by using isocratic elution of water containing 0.1% phosphoric acid and ACN with ratio of 30:70. The retention times of the compounds were ca. 4.3–4.4 min at the flow rate of 1.0 mL/min at room temperature. […] These HPLC methods were accurate (100 ± 10% of nominal concentration), precise (RSD% <10%), and selective (no interfering peaks) over the range 0.1–2 μM.
All data analyses, including Michaelis-Menten and Eadie-Hofstee analyses, were performed using GraphPad Prism v. […] Statistical differences between groups were tested using one-way ANOVA, followed by a two-tailed Tukey’s multiple comparison test and presented as mean ± SD, with statistically significant difference denoted by * p < 0.05, ** p < 0.01, *** p < 0.001.
Data set [3] relates to OATP1A2. Also noted: method as in PMID 31254566; Vmax: unit not given here. The following applies: reference substrate; cited from earlier work.
Data set [4] has as its system MCF-7 cells. The following applies: human, 30 min, 25 µM.
Procedure: For the cellular uptake experiments, MCF-7 cells were seeded at the density of 1 × 10^5 cells/well onto 24-well plates a day before the experiments. Cellular uptake of neurosteroids (1–11) dissolved in DMSO and diluted with HBSS or MES buffer containing 5% 2-hydroxypropyl-β-cyclodextrin (HP-β-CD) was studied by incubating the cells with the pre-warmed compound solutions (250 μL) at the concentrations of 1–200 μM, at pH 7.4 (HBSS buffer), or in parallel at 5.0 (MES buffer), at 37 °C for 30 min (uptake was linear with all compounds up to 30 min). Subsequently, the cells were washed three times with ice-cold buffer and lysed with 250 μL of NaOH (0.1 M) for 60 min. The lysates were diluted with acetonitrile (ACN) with a ratio of 1:3 and centrifuged at 10,000× g for 10 min. The samples were analyzed by high-performance liquid chromatography (HPLC) methods described below. The concentrations of each compound were calculated from the standard curve and normalized to protein concentration in each 24-plate that was determined as a mean of three samples by Bio-Rad Protein Assay, based on the Bradford dye-binding method, using BSA as a standard protein and measuring the absorbance (595 nm) by multiplate reader (EnVision, Perkin Elmer, Inc., Waltham, MA, USA).
Concentrations of neurosteroids (1–11) were determined by HPLC. […]
Where [5] appears, read: read-out: Transport Mechanism Type 1 Km.
Setting [6] is: read-out: Transport Mechanism Type 2 Km.

The values that follow come from PMC8472597, “Neurosteroids: Structure-Uptake Relationships and Computational Modeling of Organic Anion Transporting Polypeptides (OATP)1A2” (Molecules, 2021).

Several values for one entry are separate records, joined by “and”; a condition that tells them apart may be missing. Equal entries are not always repeated. Where two headings read alike, the source gives them in different places.

In the case of `CC(=O)[C@H]1CCC2C3CC[C@@H]4C[C@H](O)CC[C@]4(C)C3CC[C@@]21C` (stereo partly drawn) [Compound 1, 3α5β-Pregnanolone, reference compound], the “Transport Mechanism Type 1 Vmax” value in data set [1] came out at 26.3 ± 4.2 pmol/mg/min. Besides, the Km in data set [1] (setting [5]) stood at 55.4 µM. In data set [2], the “Efflux transporter substrate status” value is recorded as “substrates for all studied efflux transporters”.
On to `C[C@H]1CCC2C3CC[C@@H]4C[C@H](NC(=O)CC(=O)O)CC[C@]4(C)C3CC[C@@]21C` (some centres unmarked) [Compound 4], for which the “Transport Mechanism Type 1 Vmax” value in data set [1] amounted to 13.9 ± 6.7 pmol/mg/min. Besides, the Michaelis constant (Km) in data set [1] (setting [5]) is approximately 233 µM.
As for `CC(=O)[C@H]1CCC2C3CC[C@@H]4C[C@H](OC(=O)[C@@H](N)CCC(=O)O)CC[C@]4(C)C3CC[C@@]21C` (some centres unmarked) [Compound 2], the “Uptake profile over concentration (saturation of transporter)” value in data set [1] is “did not reach the saturation stage”. Further, the “Efflux transporter substrate status” value in data set [2] is given as “efflux phenomenon can be abolished”. Besides, the “Cellular uptake in the presence of efflux inhibitors elacridar or MK-571” value in data set [2] (50 µM inhibitor, pH 7.4, MCF-7 cells) is reported as “not affected”.
With `C[C@]12CC[C@@H]3c4ccc(OS(=O)(=O)O)cc4CC[C@H]3[C@@H]1CCC2=O` [Compound E3S, Estrone-3-Sulfate], in data set [3], the Michaelis constant (Km) is 6.5 µM, the Vmax is reported as 66 ± 8.5 and the efficacy is given as 10.21.
On to `C[C@@]12CCCC1C1CC[C@@H]3C[C@H](NC(=O)[C@@H](N)CC(=O)O)CC[C@]3(C)C1CC2` (some centres unmarked) [Compound 8], for which, in data set [1], the “Transport Mechanism Type 1 Vmax” value was determined as 8.0 ± 2.1 pmol/mg/min; the “Transport Mechanism Type 2 Vmax” value was 28.2 pmol/mg/min and 28.2 ± 0.1 pmol/mg/min. For the same compound, the Km in data set [1] (setting [5]) amounted to 10.9 µM. Also, in data set [1] (setting [6]), the Km came to 42.8 µM. The “Cellular uptake at pH 5.5 compared to pH 7.4” value in data set [4] is recorded as “increased the uptake of all neurosteroids, except of compound 8”.
In the case of `CC(C)(C)OC(=O)N[C@@H](CCC(=O)O)C(=O)N[C@@H]1CC[C@]2(C)C3CC[C@]4(C)CCCC4C3CC[C@@H]2C1` (some centres unmarked) [Compound 10], the Km in data set [1] (setting [5]) is 23 µM; in data set [1] (setting [6]), 282 µM.
`C[C@@]12CCCC1C1CC[C@@H]3C[C@H](OC(=O)[C@@H](N)CCC(=O)O)CC[C@]3(C)C1CC2` (some centres unmarked) [Compound 3]: in data set [1], the “Transport Mechanism Type 1 Vmax” value is 3.0 pmol/mg/min and 3.0 ± 0.4 pmol/mg/min; the “Transport Mechanism Type 2 Vmax” value was 8.2 pmol/mg/min and 8.2 ± 0.1 pmol/mg/min. For the same compound, in data set [1] (setting [5]), the Km is 7.7 µM. In data set [1] (setting [6]), the Km came out at 25.2 µM.
For `CC(C)(C)OC(=O)N[C@@H](CC(=O)O)C(=O)N[C@@H]1CC[C@]2(C)C3CC[C@]4(C)CCCC4C3CC[C@@H]2C1` (some centres unmarked) [Compound 7], the “Transport Mechanism Type 1 Vmax” value in data set [1] came out at 3.0 ± 0.1 pmol/mg/min.
For `C[C@@]12CCCC1C1CC[C@@H]3C[C@H](NC(=O)CCCC(=O)O)CC[C@]3(C)C1CC2` (some centres unmarked) [Compound 9], in data set [1], the “Transport Mechanism Type 1 Vmax” value turned out to be 5.5 ± 0.6 pmol/mg/min and the “Transport Mechanism Type 2 Vmax” value amounted to 26.5 ± 3.0 pmol/mg/min. Further, the Km in data set [1] (setting [5]) is 9.2 µM. Further, the Km in data set [1] (setting [6]) came out at 67.8 µM.
In the case of `C[C@@]12CCCC1C1CC[C@@H]3C[C@H](NC(=O)CCC(=O)O)CC[C@]3(C)C1CC2` (some centres unmarked) [Compound 6], in data set [1], the “Transport Mechanism Type 1 Vmax” value came out at 3.9 ± 0.5 pmol/mg/min and the “Transport Mechanism Type 2 Vmax” value worked out at 10.2 ± 0.1 pmol/mg/min.
Consider `CC(C)(C)OC(=O)N[C@@H](CO)C(=O)N[C@@H]1CC[C@]2(C)C3CC[C@]4(C)CCCC4C3CC[C@@H]2C1` (some centres unmarked) [Compound 5], for which, in data set [1], the “Transport Mechanism Type 1 Vmax” value was 5.3 pmol/mg/min and 5.3 ± 0.4 pmol/mg/min; the “Transport Mechanism Type 2 Vmax” value came to 34.7 ± 7.7 pmol/mg/min. Besides, in data set [1] (setting [5]), the Km was 76.4 µM. For the same compound, the Km in data set [1] (setting [6]) was approximately 960 µM.
In the case of `C[C@@]12CCCC1C1CC[C@@H]3C[C@H](NC(=O)[C@@H](N)CCC(=O)O)CC[C@]3(C)C1CC2` (some centres unmarked) [Compound 11], the “Transport Mechanism Type 1 Vmax” value in data set [1] worked out at 17.2 ± 2.1 pmol/mg/min. Further, the Michaelis-Menten constant (Km) in data set [1] (setting [5]) worked out at 24.2 µM.

As usually defined, the Km is the concentration of substrate that gives half-maximal velocity.
